From patent publication US20260069629A1, “RECEPTACLE, DEVICE FOR RELEASING CARBON MONOXIDE, TREATMENT SYSTEM, SET FOR TREATING LIVING CELLS, METHOD OF TREATING A MAMMAL, AND CARBON MONOXIDE” (Julius-Maximilians-Universität Würzburg, in Vertretung des …, priority 2022, published 2026)

What was measured:
human semen/spermatozoa [1] = assay: Static oxidation-reduction potential (sORP) of spermatozoa incubated with/without CO, MiOXSYS (Example 1); assay type: cell-based; details: two-compartment capsule, 15 mg Mo-CORM, 90 minutes at 25-35° C.; vs samples not contacted with CO (woCO=1); FIG. 10
Protocol: (§1) In this example, the capsule (18-22 mm in length and 6-8 mm diameter) loaded with 15 mg of CO-releasing molecules (Mo-CORM) and 150 μl of an aqueous FeCl3 solution (583.3 mg/ml) was used for the preservation of a 0.7 mL to about 2.9 mL sample in a standard 15 mL Falcon tube.
(§2) Between 1.46 mL and 5.7 mL human semen/spermatozoa were collected from healthy males of between 25 and 50 years of age in 100 mL sample vials on site. Samples were then divided into two equal fractions each for subsequent incubation with CO (wCO) and without CO (woCO). In order to estimate the spermatozoa concentration in the samples and to establish an initial baseline for each sample, a routine spermiogram was performed before samples were transferred to gas-tight 15 mL Falcon tubes. Samples were incubated at 25-35° C. for 90 minutes with and without an activated capsule system in a closed container. During this incubation period liquefaction took place naturally. The samples were then analyzed for total motility, progressive motility, static oxidation-reduction potential, and for DNA fragmentation.
A Male Infertility Oxidative System (MiOXSYS, Englewood, CO) was used to determine static oxidation-reduction potential (sORP) levels. 30 μL of the sperm samples were transferred to the sample application port on a MiOXSYS sensor and analyzed for 2 minutes. […]

human semen/spermatozoa [2] = assay: Progressive motility of spermatozoa incubated with/without CO, CASA (Example 1); assay type: cell-based; details: two-compartment capsule, 15 mg Mo-CORM, 90 minutes; vs spermatozoa not contacted with CO
Protocol: as §1
as §2, with “Samples were incubated at 25-35° C. for 90 minutes with and without an activated capsule system in a closed container. During this incubation period liquefaction took place naturally.” left out
Total motility, progressive motility and concentration of the samples were assessed using a CEROS II (Hamilton Thorne, Beverly, MA) computer assisted sperm analysis (CASA) system. 6 μL of a sperm sample diluted 1:1 with Multipurpose Handling Medium-Complete (MHM-C, FujiFilm/IrvineScientific, Santa Ana, CA) was measured and the concentration and level of mobility (total and progressive motility) was assessed.

human semen/spermatozoa [3] = assay: DNA fragmentation of spermatozoa incubated with/without CO, Halo Sperm G2 Kit (Example 1); assay type: cell-based; details: two-compartment capsule, 15 mg Mo-CORM, 90 minutes at 25-35° C.; vs samples not contacted with CO (woCO=1); FIG. 11
Protocol: as §1
as §2, with “During this incubation period liquefaction took place naturally.” left out
To determine DNA fragmentation a count-based microscopy assay was performed. For this spermatozoa samples were diluted using MHM-C (Multipurpose Handling Medium-Complete, FujiFilm, IrvineScientific) to a maximum of 20×E6 spermatozoa per mL and analyzed using a Halo Sperm G2 Kit (Halotech, Madrid, Spain). […] At least 300 spermatozoa were then analyzed using a bright field microscope. […]

Human sperm = assay: Static oxidation-reduction potential (sORP) of sperm treated with single-chamber receptacles, MiOXSYS (Example 2); assay type: cell-based; details: vs untreated, results expressed in mV/10^6 sperm/mL, FIG. 12
Protocol: Example 2 illustrates the improvement of spermatozoan viability parameters (namely, oxidation-reduction potential) in response to different carbon monoxide (CO) incubation durations. Sperm form the same subject was either treated with carbon monoxide or left untreated, as “untreated” control. Treatments with CO varied in duration (60, 90, 180, or 270 min).
In this example, sperm samples were treated with either one, three, or six receptacles/capsules, each loaded with 5 mg Mo-CORM (corresponds to 0.44 mL CO) for 60 to 270 mins, or left untreated for the same amount of time.
Human sperm was collected from healthy volunteers in 100 mL specimen containers. Afterwards, the ejaculate was split into equal parts and filled into 15 mL gas tight falcon tubes, with one of the samples being exposed to one or more activated receptacles/capsules. Then, both samples were analyzed for static oxidation-reduction potential (sORP) via MiOXSYS after a predetermined time.
An oxidative male infertility measuring System (MiOXSYS, Englewood, CO) was used to determine static oxidation-reduction potential (sORP) levels following manufacturer's specifications. 30 μL of sample were transferred to the sample application port onto a MiOXSYS sensor and analyzed for 2 minutes. The results were expressed in milli Volt (mV) and normalized to the seminal sperm concentration (mV/10^6 sperm/mL).

[4] = Carbon monoxide release from the receptacle after combining main substance and activation substance; assay type: physicochemical
Protocol: Carbon monoxide (CO) release was 1.30 mL, 0.95 mL, 0.44 mL, and 0.23 mL corresponding to 15 mg, 10 mg, 5 mg, and 2.5 mg of the main substance 42 (“Mo-CORM”), respectively.
Carbon monoxide (CO) release ranged from 0.95 mL to 0.34 mL corresponding to 50 μL to 10 μL of the activation substance 44 (“FeCl”), respectively.

[C-]#[O+] [CO, carbon monoxide]
Relative oxidation-reduction-potential (sORP wCO / sORP woCO) (human semen/spermatozoa [1]): trend to be lower
progressive motility of spermatozoa (human semen/spermatozoa [2]): improvement
Relative DNA fragmentation (wCO / woCO) (human semen/spermatozoa [3]): reduced
oxidation-reduction potential (sORP) of treated gametes (Human sperm; subject 38_7, contacted with carbon monoxide for 60 min): drastic reduction
oxidation-reduction potential (sORP) of treated gametes (Human sperm; subject 42_1, contacted with carbon monoxide for 90 min): drastic reduction

trisodiumtricarbonyl-[tris(isocyanoethylacetate)]molybdenum [Mo-CORM]
released amount/volume of carbon monoxide (CO) from the receptacle ([4]; 2.5 mg of the main substance (Mo-CORM), FIG. 9A): 0.23 mL
released amount/volume of carbon monoxide (CO) from the receptacle ([4]; 5 mg of the main substance (Mo-CORM), FIG. 9A): 0.44 mL
released amount/volume of carbon monoxide (CO) from the receptacle ([4]; 10 mg of the main substance (Mo-CORM), FIG. 9A): 0.95 mL
released amount/volume of carbon monoxide (CO) from the receptacle ([4]; 15 mg of the main substance (Mo-CORM), FIG. 9A): 1.30 mL
released amount/volume of carbon monoxide (CO) from the receptacle ([4]; 10 μL of the activation substance (FeCl), FIG. 9B): 0.34 mL
released amount/volume of carbon monoxide (CO) from the receptacle ([4]; 50 μL of the activation substance (FeCl), FIG. 9B): 0.95 mL
